Read-outs that look alike come from different tables or passages of the source.
Key:
[1] = target: T1, HSD17B4 (Homo sapiens, UniProt P51659); assay: Binary MASPIT assay; assay type: cell-based; conditions: HEK293T cells, 100 ng/ml leptin, 24 hours; FIG. 4
T1 construct: endogenous in cells; host or cells: HEK293T
T1 sequence (P51659 1-736): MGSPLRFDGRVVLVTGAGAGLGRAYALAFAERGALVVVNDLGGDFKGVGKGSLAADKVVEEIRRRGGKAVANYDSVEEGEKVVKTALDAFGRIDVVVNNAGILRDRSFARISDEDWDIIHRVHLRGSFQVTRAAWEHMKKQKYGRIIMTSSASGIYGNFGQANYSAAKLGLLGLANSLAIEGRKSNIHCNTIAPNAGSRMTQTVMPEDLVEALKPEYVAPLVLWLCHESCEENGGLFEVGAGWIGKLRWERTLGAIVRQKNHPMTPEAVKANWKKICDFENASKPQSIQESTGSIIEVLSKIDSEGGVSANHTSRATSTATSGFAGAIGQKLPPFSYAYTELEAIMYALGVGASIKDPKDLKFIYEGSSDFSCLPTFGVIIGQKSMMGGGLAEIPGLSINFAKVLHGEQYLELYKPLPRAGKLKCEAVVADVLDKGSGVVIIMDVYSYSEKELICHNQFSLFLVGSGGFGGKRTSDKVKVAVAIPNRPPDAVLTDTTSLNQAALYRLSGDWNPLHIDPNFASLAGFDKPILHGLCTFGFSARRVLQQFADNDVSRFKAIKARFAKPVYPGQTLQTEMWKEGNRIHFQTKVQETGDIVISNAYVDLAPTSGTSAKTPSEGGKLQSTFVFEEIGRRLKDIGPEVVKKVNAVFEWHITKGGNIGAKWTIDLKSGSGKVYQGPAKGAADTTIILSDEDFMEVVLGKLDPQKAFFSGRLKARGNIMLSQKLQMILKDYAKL
Description: The binding of HSD17B4 to tamoxifen was further confirmed using the MASPIT technology. The binary MASPIT assay was essentially performed as described before (Risseeuw et al., 2013). Briefly, HEK293T cells were seeded in black tissue-culture treated 96-well plates at 10.000 cells/well in 100 μl culture medium (DMEM supplemented with 10% fetal calf serum), and grown at 37° C., 8% CO2. Twenty-four hours later cells were transfected with a combination of the pCLG-eDHFR plasmid (Risseeuw et al., 2013), the pMG1-HSD17B4 construct and the pXP2d2-rPAP1-luciferase reporter (Caligiuri et al., 2006). The pMG1-HSD17B4 construct was generated by Gateway transfer of the full size HSD17B4 ORF, obtained as an entry clone in the hORFeome collection, into the Gateway compatible pMG1 prey destination vector as described earlier (Lievens et al., 2009). Twenty-four hours after transfection, cells were either left unstimulated or treated with 100 ng/ml leptin, with or without addition of MTX-PEG6-tamoxifen. Another 24 hours later, luciferase activity was assayed using the Luciferase Assay System kit (Promega).

[2] = target: T2, RTN3 (Homo sapiens, UniProt O95197); assay: Viral trapping in VLPs, MS analysis; assay type: binding; conditions: all proteins (incl. low confidence identifications)
T2 construct: endogenous in cells; host or cells: HEK293T
Description: (§1) For mass spectrometry, 10^7 HEK293T cells were seeded in five flasks (75 cm^2) and transfected the next day with a total of 15 μg DNA per flask using polyethylene imine reagent. The following DNA quantities were used per flask: 7.5 μg of GAG-eDHFR, 5.4 μg of mock vector and 2.1 μg of a 50/50 mix of pMD2.G and pcDNA3-FLAG-VSV-G. The small molecule fusions were added immediately after transfection to the producing cells at a concentration of 1 μM. The same dilution of dimethyl sulfoxide (DMSO) was added in control experiments to control the effect of this chemical on the cells. The cellular supernatant was harvested after 32 hours and was centrifuged for 3 minutes at 450×g to remove cellular debris. The cleared supernatant was then filtered using 0.45 μm filters (Millipore). A total of 100 μl MyOne™ Streptavidin T1 beads (Life Technologies) pre-loaded with 10 μg ANTI-FLAG® BioM2-Biotin antibody (Sigma-Aldrich®) was used to bind the tagged particles. Particles were allowed to bind for 2 hours by end-over-end rotation. The total supernatant was processed in three consecutive binding steps. Bead-particle complexes were washed once with washing buffer (TWB: 20 mM Tris-HCl pH 7.5, 150 mM NaCl) and were then eluted with FLAG peptide (200 μg/ml in TWB) and lysed by addition of SDS to a final concentration of 0.1%. After 5 minutes, SDS was removed using HiPPR Detergent Removal Spin Columns (Pierce, Thermo Scientific) followed by boiling and overnight digestion with 0.5 μg sequence-grade trypsin (Promega). After acidification (0.1% TFA final), the peptides were separated by nano-LC and directly analyzed with a Q Exactive instrument (Thermo Scientific).
(§2) For tamoxifen, four biological repeats were performed where the cells were treated with MTX-PEG6-tamoxifen after transfection. The obtained protein lists after viral trapping and MS analysis were challenged with protein lists coming from the four DMSO controls, the 19 control experiments and the lists obtained for the MTX-PEG6-simvastatin and MTX-PEG6-reversine (see below) for a total of 30 samples.

[3] = target: T3, PCSK5 (Homo sapiens, UniProt Q92824); assay: Viral trapping in VLPs, MS analysis; assay type: binding; conditions: all proteins (incl. low confidence identifications)
T3 construct: endogenous in cells; host or cells: HEK293T
T3 sequence (Q92824 115-1860): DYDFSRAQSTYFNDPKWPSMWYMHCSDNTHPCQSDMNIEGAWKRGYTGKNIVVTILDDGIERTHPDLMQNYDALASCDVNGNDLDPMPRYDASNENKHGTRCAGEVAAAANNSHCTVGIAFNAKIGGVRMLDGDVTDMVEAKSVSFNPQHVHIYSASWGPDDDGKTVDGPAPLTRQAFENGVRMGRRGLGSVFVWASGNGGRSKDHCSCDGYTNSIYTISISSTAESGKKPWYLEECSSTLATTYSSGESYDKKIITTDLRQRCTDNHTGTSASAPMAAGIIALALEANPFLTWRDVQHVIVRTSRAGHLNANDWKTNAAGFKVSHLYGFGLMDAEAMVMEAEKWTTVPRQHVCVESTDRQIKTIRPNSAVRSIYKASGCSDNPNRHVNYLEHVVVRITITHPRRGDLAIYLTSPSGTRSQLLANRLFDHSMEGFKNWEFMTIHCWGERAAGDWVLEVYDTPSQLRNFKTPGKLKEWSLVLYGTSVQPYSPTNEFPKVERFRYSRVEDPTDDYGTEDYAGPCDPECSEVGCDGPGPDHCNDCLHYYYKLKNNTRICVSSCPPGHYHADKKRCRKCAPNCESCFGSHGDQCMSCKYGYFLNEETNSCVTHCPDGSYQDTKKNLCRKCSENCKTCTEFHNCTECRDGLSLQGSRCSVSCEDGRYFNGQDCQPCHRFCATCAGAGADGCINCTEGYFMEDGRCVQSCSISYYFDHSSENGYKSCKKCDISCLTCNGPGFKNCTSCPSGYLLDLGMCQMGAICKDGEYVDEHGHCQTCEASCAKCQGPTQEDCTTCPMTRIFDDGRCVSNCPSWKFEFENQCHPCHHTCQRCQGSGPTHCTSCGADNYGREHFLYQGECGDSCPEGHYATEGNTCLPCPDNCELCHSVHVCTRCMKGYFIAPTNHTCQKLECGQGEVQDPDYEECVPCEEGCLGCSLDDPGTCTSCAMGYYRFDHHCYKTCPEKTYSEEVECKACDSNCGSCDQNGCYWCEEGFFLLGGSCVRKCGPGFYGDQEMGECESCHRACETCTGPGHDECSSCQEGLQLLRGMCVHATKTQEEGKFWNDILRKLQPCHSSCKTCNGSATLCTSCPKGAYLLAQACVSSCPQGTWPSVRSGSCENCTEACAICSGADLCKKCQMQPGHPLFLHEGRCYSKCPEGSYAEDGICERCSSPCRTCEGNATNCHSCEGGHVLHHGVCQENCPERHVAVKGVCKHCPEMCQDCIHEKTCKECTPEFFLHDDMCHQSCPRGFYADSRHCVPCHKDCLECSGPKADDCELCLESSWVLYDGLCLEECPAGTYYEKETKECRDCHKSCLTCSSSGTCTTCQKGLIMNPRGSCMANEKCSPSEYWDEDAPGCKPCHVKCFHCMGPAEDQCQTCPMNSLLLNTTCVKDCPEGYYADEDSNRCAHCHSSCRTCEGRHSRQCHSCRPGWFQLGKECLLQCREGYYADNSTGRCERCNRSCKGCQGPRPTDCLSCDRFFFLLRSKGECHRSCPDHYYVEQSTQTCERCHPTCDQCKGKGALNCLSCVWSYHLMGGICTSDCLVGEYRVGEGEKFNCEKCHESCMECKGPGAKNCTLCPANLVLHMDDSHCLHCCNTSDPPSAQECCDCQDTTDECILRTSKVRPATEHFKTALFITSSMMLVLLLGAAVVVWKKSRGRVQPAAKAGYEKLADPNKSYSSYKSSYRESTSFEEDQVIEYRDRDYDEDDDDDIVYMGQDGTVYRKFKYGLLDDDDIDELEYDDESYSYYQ
Description: as §1, §2

[4] = target: T4, WDR36 (Homo sapiens, UniProt Q8NI36); assay: Viral trapping in VLPs, MS analysis; assay type: binding; conditions: all proteins (incl. low confidence identifications)
T4 construct: endogenous in cells; host or cells: HEK293T
Description: as §1, §2

[5] = target: T5, MINK1 (Homo sapiens, UniProt Q8N4C8); assay: Viral trapping in VLPs, MS analysis; assay type: binding; conditions: all proteins (incl. low confidence identifications)
T5 construct: endogenous in cells; host or cells: HEK293T
Description: as §1, §2

[6] = target: T6, ITPRIPL1 (Homo sapiens, UniProt Q6GPH6); assay: Viral trapping in VLPs, MS analysis; assay type: binding; conditions: all proteins (incl. low confidence identifications)
T6 construct: endogenous in cells; host or cells: HEK293T
Description: as §1, §2

[7] = target: T7, TMPRSS13 (Homo sapiens, UniProt Q9BYE2); assay: Viral trapping in VLPs, MS analysis; assay type: binding; conditions: all proteins (incl. low confidence identifications)
T7 construct: endogenous in cells; host or cells: HEK293T
T7 sequence (Q9BYE2 whole entry): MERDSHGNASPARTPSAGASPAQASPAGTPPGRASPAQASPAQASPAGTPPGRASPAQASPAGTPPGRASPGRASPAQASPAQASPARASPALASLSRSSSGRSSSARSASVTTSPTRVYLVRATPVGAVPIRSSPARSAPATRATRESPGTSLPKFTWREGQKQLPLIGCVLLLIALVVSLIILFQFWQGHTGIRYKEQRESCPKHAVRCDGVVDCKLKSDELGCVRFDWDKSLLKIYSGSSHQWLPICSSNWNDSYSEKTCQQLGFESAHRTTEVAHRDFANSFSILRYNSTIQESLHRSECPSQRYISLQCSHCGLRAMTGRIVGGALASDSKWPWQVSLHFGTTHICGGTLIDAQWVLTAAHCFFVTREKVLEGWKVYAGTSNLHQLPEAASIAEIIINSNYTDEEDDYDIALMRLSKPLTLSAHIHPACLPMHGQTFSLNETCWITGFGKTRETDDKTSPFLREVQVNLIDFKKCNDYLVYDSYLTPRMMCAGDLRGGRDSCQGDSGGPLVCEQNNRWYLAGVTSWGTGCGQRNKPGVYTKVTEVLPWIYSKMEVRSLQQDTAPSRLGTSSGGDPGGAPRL
Description: as §1, §2

[8] = target: T8, SSNA1 (Homo sapiens, UniProt O43805); assay: Viral trapping in VLPs, MS analysis; assay type: binding
T8 construct: endogenous in cells; host or cells: HEK293T
T8 sequence (O43805 whole entry): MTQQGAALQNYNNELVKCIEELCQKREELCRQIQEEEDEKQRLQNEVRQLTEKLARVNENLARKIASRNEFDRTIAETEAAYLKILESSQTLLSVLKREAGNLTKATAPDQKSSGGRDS
Description: as §1, §2

[9] = target: T9, CYP51A1 (Homo sapiens, UniProt Q16850); assay: Viral trapping in VLPs, MS analysis; assay type: binding; conditions: all proteins (incl. low confidence identifications)
T9 construct: endogenous in cells; host or cells: HEK293T
T9 sequence (Q16850 whole entry): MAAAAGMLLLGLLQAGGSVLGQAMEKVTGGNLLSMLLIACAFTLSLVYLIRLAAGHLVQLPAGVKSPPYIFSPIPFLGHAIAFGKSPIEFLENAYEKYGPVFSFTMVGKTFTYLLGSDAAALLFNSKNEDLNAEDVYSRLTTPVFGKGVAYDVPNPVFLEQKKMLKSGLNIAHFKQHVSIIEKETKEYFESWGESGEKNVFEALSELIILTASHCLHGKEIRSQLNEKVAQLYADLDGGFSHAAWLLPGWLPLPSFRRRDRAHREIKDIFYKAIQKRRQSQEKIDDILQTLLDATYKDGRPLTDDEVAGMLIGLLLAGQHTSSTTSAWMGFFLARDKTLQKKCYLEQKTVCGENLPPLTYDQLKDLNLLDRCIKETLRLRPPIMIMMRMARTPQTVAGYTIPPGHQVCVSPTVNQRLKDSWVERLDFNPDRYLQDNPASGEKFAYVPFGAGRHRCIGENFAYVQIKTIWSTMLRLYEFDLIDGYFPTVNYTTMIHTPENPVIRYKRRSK
Description: as §1, §2

[10] = target: T10, RTN4 (Homo sapiens, UniProt Q9NQC3); assay: Viral trapping in VLPs, MS analysis; assay type: binding
T10 construct: endogenous in cells; host or cells: HEK293T
T10 sequence (Q9NQC3 whole entry): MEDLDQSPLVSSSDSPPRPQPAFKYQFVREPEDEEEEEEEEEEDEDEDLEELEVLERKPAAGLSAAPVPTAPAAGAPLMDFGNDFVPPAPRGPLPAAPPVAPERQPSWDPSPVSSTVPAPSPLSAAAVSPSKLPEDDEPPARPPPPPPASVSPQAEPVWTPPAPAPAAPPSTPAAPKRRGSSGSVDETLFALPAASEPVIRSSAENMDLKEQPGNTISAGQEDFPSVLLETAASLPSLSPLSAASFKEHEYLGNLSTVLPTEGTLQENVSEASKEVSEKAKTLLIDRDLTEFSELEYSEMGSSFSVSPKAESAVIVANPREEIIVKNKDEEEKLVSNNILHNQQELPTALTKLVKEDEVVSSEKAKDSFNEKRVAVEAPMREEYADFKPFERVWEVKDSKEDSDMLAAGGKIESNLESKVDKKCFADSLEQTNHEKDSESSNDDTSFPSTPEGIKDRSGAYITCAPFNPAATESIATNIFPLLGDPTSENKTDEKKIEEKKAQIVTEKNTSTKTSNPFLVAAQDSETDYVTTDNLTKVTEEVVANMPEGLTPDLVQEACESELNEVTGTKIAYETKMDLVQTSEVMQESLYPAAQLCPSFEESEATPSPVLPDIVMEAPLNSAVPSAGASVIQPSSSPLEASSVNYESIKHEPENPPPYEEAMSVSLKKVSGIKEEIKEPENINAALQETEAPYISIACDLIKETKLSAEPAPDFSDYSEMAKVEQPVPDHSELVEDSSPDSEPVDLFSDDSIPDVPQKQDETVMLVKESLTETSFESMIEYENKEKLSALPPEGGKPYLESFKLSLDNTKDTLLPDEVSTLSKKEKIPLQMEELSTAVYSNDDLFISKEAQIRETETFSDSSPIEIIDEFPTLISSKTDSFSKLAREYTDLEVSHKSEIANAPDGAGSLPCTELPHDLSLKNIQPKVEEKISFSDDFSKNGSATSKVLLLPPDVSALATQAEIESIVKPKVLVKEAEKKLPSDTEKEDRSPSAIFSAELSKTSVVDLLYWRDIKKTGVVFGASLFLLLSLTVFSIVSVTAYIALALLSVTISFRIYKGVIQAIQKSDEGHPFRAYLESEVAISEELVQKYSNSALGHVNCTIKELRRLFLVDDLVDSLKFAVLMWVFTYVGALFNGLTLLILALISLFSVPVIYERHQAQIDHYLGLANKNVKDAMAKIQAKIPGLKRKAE
Description: as §1, §2

[11] = target: T11, ESYT2 (Homo sapiens, UniProt A0FGR8); assay: Viral trapping in VLPs, MS analysis; assay type: binding
T11 construct: endogenous in cells; host or cells: HEK293T
T11 sequence (A0FGR8 whole entry): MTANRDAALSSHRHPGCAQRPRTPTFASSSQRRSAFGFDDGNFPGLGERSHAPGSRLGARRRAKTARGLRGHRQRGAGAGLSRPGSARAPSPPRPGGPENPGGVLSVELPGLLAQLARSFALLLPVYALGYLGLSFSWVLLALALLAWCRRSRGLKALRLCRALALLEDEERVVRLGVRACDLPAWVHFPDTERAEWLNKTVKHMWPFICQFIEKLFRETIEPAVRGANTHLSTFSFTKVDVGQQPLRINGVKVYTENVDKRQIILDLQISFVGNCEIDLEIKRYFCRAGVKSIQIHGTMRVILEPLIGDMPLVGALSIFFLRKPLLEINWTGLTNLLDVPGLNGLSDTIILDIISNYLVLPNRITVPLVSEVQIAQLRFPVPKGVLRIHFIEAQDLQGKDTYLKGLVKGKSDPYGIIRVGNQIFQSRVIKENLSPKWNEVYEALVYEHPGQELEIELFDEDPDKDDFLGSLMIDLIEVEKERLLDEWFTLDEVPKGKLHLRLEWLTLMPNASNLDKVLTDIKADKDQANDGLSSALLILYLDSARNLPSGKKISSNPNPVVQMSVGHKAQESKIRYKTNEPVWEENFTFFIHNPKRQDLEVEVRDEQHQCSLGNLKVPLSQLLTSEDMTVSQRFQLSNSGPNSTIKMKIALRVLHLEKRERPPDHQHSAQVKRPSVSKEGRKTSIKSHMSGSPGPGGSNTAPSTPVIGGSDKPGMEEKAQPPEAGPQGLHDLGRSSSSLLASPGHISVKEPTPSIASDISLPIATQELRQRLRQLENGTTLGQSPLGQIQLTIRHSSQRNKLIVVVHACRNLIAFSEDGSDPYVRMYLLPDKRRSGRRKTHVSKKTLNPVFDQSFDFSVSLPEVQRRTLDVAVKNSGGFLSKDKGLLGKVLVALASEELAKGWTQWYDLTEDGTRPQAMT
Description: as §1, §2

[12] = test system: FAM62A
Description: as §1, §2

[13] = test system: PRSS3; conditions: all proteins (incl. low confidence identifications)
Description: as §1, §2

[14] = test system: C28H10ORF35; conditions: all proteins (incl. low confidence identifications)
Description: as §1, §2

[15] = all proteins (incl. low confidence identifications)
[16] = proteins identified with >1 peptide (high confidence)

CCC(=C(c1ccccc1)c1ccc(OCCN(C)Cc2cn(CCOCCOCCOCCOCCOCCNC(=O)CCC(NC(=O)c3ccc(N(C)Cc4cnc5nc(N)nc(N)c5n4)cc3)C(=O)O)nn2)cc1)c1ccccc1 (stereo not drawn) [MTX-PEG6-tamoxifen] was tested, and the “luciferase activity (MASPIT signal)” value [1] was “increased luciferase activity in a dose-dependent manner”, the “Recurrence (x/4)” value [2] was 1 x/4 and the “Recurrence (x/4)” value [3] was 1 x/4. The “Recurrence (x/4)” value [4] was 1 x/4, the “Recurrence (x/4)” value [5] was 1 x/4 and the “Recurrence (x/4)” value [6] was 1 x/4. For the same molecule, the “Recurrence (x/4)” value [7] was 1 x/4, the “Recurrence (x/4)” value [8, 15] was 4 x/4 and the “Recurrence (x/4)” value [8, 16] was 2 x/4. The “Recurrence (x/4)” value [9] was 1 x/4, the “Recurrence (x/4)” value [10, 15] was 1 x/4 and the “Recurrence (x/4)” value [10, 16] was 1 x/4. For the same molecule, the “Recurrence (x/4)” value [11, 15] was 1 x/4, the “Recurrence (x/4)” value [11, 16] was 1 x/4 and the “Recurrence (x/4)” value [12, 15] was 1 x/4. For the same molecule, the “Recurrence (x/4)” value [12, 16] was 1 x/4, the “Recurrence (x/4)” value [13] was 1 x/4 and the “Recurrence (x/4)” value [14] was 1 x/4.
